{
  "source": "patent US20170348269A1",
  "about": "“TREATMENT OF UREA CYCLE DISORDERS IN NEONATES AND INFANTS” (Horizon Therapeutics, LLC, priority 2016, published 2017)",
  "format_in_all_cases": "in vivo, human",
  "key": {"[1]": {"tested_on": "blood ammonia in pediatric patients with UCDs", "experiment": "HPN-100-012 open-label fixed sequence switch-over study, blood ammonia control", "from_the_text": "HPN-100-012, an open-label, fixed sequence, switch-over study of the safety, PK and efficacy of HPN-100 compared to NaPBA in patients with UCDs, with a 12-month safety extension part. […] After review of all the safety data by the DSMB, 8 additional subjects were enrolled in the study after the switch-over phase was completed. The primary efficacy endpoint was the 24-hour AUC (area under the curve) for blood ammonia on Day 1 compared with Day 10."}, "[2]": {"experiment": "HPN-100-005 pharmacokinetics of HPN-100 and NaPBA in pediatric UCD patients", "conditions": "HPN-100-005 (N = 11)", "from_the_text": "(§1) The pharmacokinetics of the short term studies can be summarized as follows. Mean exposure levels of HPN-100 metabolites PBA, PAA, and PAGN after doses of HPN-100 and NaPBA with meals (TID) in pediatric (29 days to 17 years of age) UCD patients in HPN-100-005 and HPN-100-012 studies are summarized below. The mean exposure to PBA, the parent metabolite, and mean exposure to PAGN, the terminal metabolite, show no systematic variation across age groups, while PAA exposure tended to decrease with increasing age, a finding consistent with those from population PK modeling which indicate that the rate of clearance/metabolism of PAA varies directly with body size. While systemic metabolite exposure, assessed as peak plasma concentration (Cmax) or AUC, is generally similar for HPN-100 and NaPBA, the minimum concentration (Cmin-ss) was higher—and/or percent-fluctuation less—for plasma PAGN, a finding consistent with slower gastrointestinal absorption of PBA when administered orally as HPN-100."}, "[3]": {"experiment": "HPN-100-012 switch-over study, pharmacokinetics of HPN-100 and NaPBA in pediatric UCD patients", "conditions": "HPN-100-012 (N = 15), TID with meals, arithmetic mean", "method": "HPN-100-012, an open-label, fixed sequence, switch-over study of the safety, PK and efficacy of HPN-100 compared to NaPBA in patients with UCDs, with a 12-month safety extension part. The switch-over part of the study and the 12-month safety extension are complete. The switch-over part was conducted at 7 U.S. centers and enrolled 15 pediatric UCD patients between 29 days and <6 year of age, all of whom completed the study. After review of all the safety data by the DSMB, 8 additional subjects were enrolled in the study after the switch-over phase was completed. The primary efficacy endpoint was the 24-hour AUC (area under the curve) for blood ammonia on Day 1 compared with Day 10.\nas §1"}, "[4]": {"conditions": "pediatric UCD patients, TID with meals, arithmetic mean"}},
  "data": [
    {"molecule": "O=C([O-])CCCc1ccccc1.[Na+]", "note": "[NaPBA, sodium phenylbutyrate]", "values": [
      {"measurement": "Mean blood ammonia at the 12-hour time point", "setting": "[1]; HPN-100 Day 10, NaPBA Day 1, highest value for both treatments", "result": 41.03, "unit": "µmol/L"},
      {"measurement": "Mean blood ammonia at the 24-hour time point", "setting": "[1]; NaPBA Day 1, lowest value on NaPBA", "result": 34.66, "unit": "µmol/L"},
      {"measurement": "Plasma PAA CLss/F", "setting": "[2]; [4]", "result": 34391, "unit": "mL/min"},
      {"measurement": "Plasma PBA CLss/F", "setting": "[2]; [4]", "result": 145463, "unit": "mL/min"},
      {"measurement": "Plasma PAA Cmin-ss", "setting": "[2]; pediatric UCD patients, TID with meals, arithmetic mean (CV %)", "result": 674, "unit": "ng/mL"},
      {"measurement": "U-PAGN Ae0-12", "setting": "[2]; urinary PAGN excreted 0-12 h, arithmetic mean", "result": 7098020, "unit": "µg"},
      {"measurement": "U-PAGN Ae12-24", "setting": "[2]; urinary PAGN excreted 12-24 h, arithmetic mean", "result": 5414406, "unit": "µg"},
      {"measurement": "U-PAGN Ae", "setting": "[2]; urinary PAGN excreted, arithmetic mean", "result": 12512426, "unit": "µg"},
      {"measurement": "Plasma PAA % Fluctuation", "setting": "[3]", "result": 1289, "unit": "%"},
      {"measurement": "Plasma PAA AUC0-24", "setting": "[3]", "result": 1458, "unit": "µg·h/mL"},
      {"measurement": "Plasma PAA CLss/F", "setting": "[3]", "result": 94249, "unit": "mL/min"},
      {"measurement": "Plasma PAGN CLss/F", "setting": "[3]", "result": 14360, "unit": "mL/min"},
      {"measurement": "Plasma PBA CLss/F", "setting": "[3]", "result": 112093, "unit": "mL/min"},
      {"measurement": "Plasma PBA Cmin-ss", "setting": "[3]", "result": 993, "unit": "ng/mL"}
    ]}
  ]
}
